The assay relates to Human gastric cancer cell HGC-27. Briefly: In-vitro anti-tumor activity test by MTT method. The assay is classed as cell-based. The following applies: HGC-27 cells, 24 hours incubation with compound, OD 570 nm. The protocol:
Anti-Tumor Activity Test of Compounds
The in-vitro anti-tumor activity of the compounds was tested by tetramethylazoazole colorimetric (MTT) method. Human gastric cancer cell HGC-27 was used as a test cell. 5-fluorouracil (5-FU) was selected as the positive control drug. Human gastric cancer cell HGC-27 in the exponential growth phase was made into a cell suspension with 4×10^3 cells/mL, inoculated in a 96-well plate, and cultured in a CO2 incubator for 36 hours. The test solution (10 μL) of the compound to be tested was added into the test wells, with parallel wells being set for each concentration. The same amount of DMSO was used as a blank control. The plate was incubated in a CO2 incubator for 24 hours, then the supernatant was discarded, and 10 μL of 5% MTT was added to each well. Then the plate was incubated for 4 hours, and the supernatant was sucked and discarded. Subsequently, 100 μL of DMSO was added to each well, and the plate was shaken in a shaker for 20 minutes. The OD value was measured with a microplate reader at a wavelength of 570 nm, and the cell inhibition rate was calculated. Cell inhibition rate=(OD value of negative control group−OD value of tested substance group)/OD value of negative control group×100%. The IC50 value of each compound was calculated by the probability unit weighted regression method.
As for `O=c1[nH]cc(F)c(=O)[nH]1` [Compound 5-FU, 5-fluorouracil, reference compound], the half-maximal inhibitory concentration (IC50) came to 34.1 µM.

`COc1ccc(-c2nc(C(=O)N/N=C/c3c(C)nn(C)c3Oc3ccc(Cl)cc3)cc3c2[nH]c2ccccc23)cc1OC` [Ia]: the IC50 worked out at 10.1 µM.

As to `COc1ccc(Oc2c(/C=N/NC(=O)c3cc4c([nH]c5ccccc54)c(-c4ccc(OC)c(OC)c4)n3)c(C)nn2C)cc1` [Ib], the IC50 stood at 1.89 µM.

Turning to `COc1ccc(-c2nc(C(=O)N/N=C/c3c(C)nn(C)c3Oc3ccc(F)cc3)cc3c2[nH]c2ccccc23)cc1OC` [Ic], the IC50 was 7.03 µM.

Turning to `COc1ccc(-c2nc(C(=O)N/N=C/c3c(C)nn(C)c3Oc3ccc(F)cc3F)cc3c2[nH]c2ccccc23)cc1OC` [Id], the IC50 came to 1.27 µM.

These data come from patent US12358914B2, “Preparation method and use of pyrazole compound containing 1-(3,4-dimethoxyphenyl)-β-carboline unit” (NANTONG UNIVERSITY, priority 2020, dated 2025).
